Our source for the IC50 values is article PMC8955712, “Rapid Mining of Novel α-Glucosidase and Lipase Inhibitors from Streptomyces sp. HO1518 Using UPLC-QTOF-MS/MS” (Marine Drugs, 2022).

Common to all, as to format: biochemical
Test [1] concerns the target T1, Porcine pancreatic α-amylase (PPA) (Sus scrofa, UniProt P00690).
T1 construct: purchased Sigma Aldrich Co. (St Louis, MO, USA)
T1 sequence (P00690 16-511): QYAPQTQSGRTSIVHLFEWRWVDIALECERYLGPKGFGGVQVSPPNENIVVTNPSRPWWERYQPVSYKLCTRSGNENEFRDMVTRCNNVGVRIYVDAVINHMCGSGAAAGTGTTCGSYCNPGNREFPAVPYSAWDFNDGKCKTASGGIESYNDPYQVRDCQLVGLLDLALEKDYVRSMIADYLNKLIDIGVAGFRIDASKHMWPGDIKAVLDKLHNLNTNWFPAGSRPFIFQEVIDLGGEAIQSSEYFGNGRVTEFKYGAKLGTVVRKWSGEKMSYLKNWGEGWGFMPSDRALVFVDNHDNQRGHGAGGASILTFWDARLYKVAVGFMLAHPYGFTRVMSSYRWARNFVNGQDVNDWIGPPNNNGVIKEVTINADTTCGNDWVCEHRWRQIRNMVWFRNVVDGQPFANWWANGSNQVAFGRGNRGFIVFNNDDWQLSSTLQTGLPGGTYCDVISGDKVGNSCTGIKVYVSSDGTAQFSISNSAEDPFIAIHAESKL
Briefly: PPA inhibition assay. The conditions noted are these: read-out: IC50 Values Against PPA. From the text:
(§1) The HPLC-grade methanol and acetonitrile were purchased from CINC High Purity Solvents (Shanghai) Co., Ltd. (Shanghai, China). The other solvents were of analytical grade (Sinopharm Chemical Reagent Co., Ltd., Beijing, China). Porcine pancreatic α-amylase (PPA) and PL were purchased from Sigma Aldrich Co. (St Louis, MO, USA). […] Standards 1–9 were previously isolated from Streptomyces sp. HO1518 by our group.

The next test concerns the target sucrase. Briefly: Sucrase inhibition assay. To be noted: mean ± SD; acarbose positive control; read-out: IC50 Values Against Sucrase. From the text:
The HPLC-grade methanol and acetonitrile were purchased from CINC High Purity Solvents (Shanghai) Co., Ltd. (Shanghai, China). The other solvents were of analytical grade (Sinopharm Chemical Reagent Co., Ltd., Beijing, China). Porcine pancreatic α-amylase (PPA) and PL were purchased from Sigma Aldrich Co. (St Louis, MO, USA). Sucrase and acarbose were obtained from Shanghai yuanye Bio-Technology Co., Ltd. (Shanghai, China). Orlistat was bought from Shanghai xushuo Bio-Technology Co., Ltd. (Shanghai, China). Standards 1–9 were previously isolated from Streptomyces sp. HO1518 by our group.
The sucrase inhibition assay of compounds 9–20 was evaluated according to the previously reported method.

The target in a further test is T2, pancreatic lipase (PL) (Sus scrofa, UniProt P00591).
T2 construct: purchased Sigma Aldrich Co. (St Louis, MO, USA)
T2 sequence (P00591 1-450): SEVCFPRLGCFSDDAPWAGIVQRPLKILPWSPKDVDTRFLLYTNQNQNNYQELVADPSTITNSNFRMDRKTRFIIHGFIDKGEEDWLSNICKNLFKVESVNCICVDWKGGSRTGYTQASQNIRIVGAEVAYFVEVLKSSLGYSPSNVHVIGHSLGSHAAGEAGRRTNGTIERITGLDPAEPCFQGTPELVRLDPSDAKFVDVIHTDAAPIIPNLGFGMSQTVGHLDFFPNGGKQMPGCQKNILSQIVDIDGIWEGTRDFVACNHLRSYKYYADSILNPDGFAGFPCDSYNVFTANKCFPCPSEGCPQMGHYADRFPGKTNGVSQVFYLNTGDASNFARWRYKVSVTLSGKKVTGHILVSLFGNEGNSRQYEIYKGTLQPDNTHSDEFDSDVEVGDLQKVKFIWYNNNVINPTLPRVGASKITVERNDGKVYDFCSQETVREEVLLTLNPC
Briefly: PL (lipase) inhibition assay. The conditions noted are these: read-out: IC50 Values Against PL.
Description: as §1

For orientation: IC50 means the concentration that gives 50% inhibition. On to `CCCC(=O)OC[C@H]1O[C@H](O[C@H]2[C@H](O)[C@@H](O)[C@@H](O[C@H]3[C@H](O)[C@@H](O)[C@@H](O[C@H]4[C@H](O)[C@@H](O)C(O)O[C@@H]4CO)O[C@@H]3CO)O[C@@H]2CO)[C@H](O)[C@@H](O)[C@@H]1O[C@H]1O[C@H](C)[C@@H](N[C@H]2C=C(CO)[C@@H](O)[C@H](O)[C@H]2O)[C@H](O)[C@H]1O` (stereo partly drawn) [Compound 18, Bu-Aca I03], for which the IC50 in test [1] was 0.402 ± 0.008 µM; at sucrase, 3.8 ± 0.78 µM; at pancreatic lipase (PL), 11.7 ± 2.52 µM.
